Measurements taken from patent US20230174538A1, “Tricyclic heterocycles” (Merck Patent GmbH, priority 2020, published 2023).

Each compound was assayed on YAP-TEAD interaction (assay: SK-HEP-1 reporter assay (8xTEAD responsive elements driving NanoLuc luciferase)). Settings: Homo sapiens, SK-HEP1, SK-HEP-1 reporter assay.
Assay type: cell-based
Method: To identify inhibitors of YAP-TEAD interaction, 8×TEAD responsive elements driving the NanoLuc® luciferase gene were stably integrated into SK-HEP-1 cells (ECACC #: 91091816).
For the assay, cells were treated in duplicates with the test compounds in a 10-point dose, with the top concentration starting at 30 μM (final concentration in assay). After a 24 hour incubation at 37° C., 95% rH, and 5% CO2, a luciferase substrate/lysis reagent mix (NanoGlo™, Promega) was added to the cells, allowing the quantification of cellular luciferase activity.
Cell Media: The cells were cultured in the following media: MEM, +10% FBS, +1× GlutaMAX, +1 mM Sodium-Pyruvate, +100 μM Non-essential amino acids, +0.1 mg/ml Hygromycin. The media used for the assay was: MEM (w/o Phenol Red), +10% FBS, +1× GlutaMAX, +1 mM Sodium-Pyruvate, +100 μM Non-essential amino acids, +0.5% Pen/Strep
Reagents: The reagents used are listed below:
Cell culture: The cells were examined using an inverted microscope to check for health and cell density. To dissociate adherent cells, the monolayer of cells was washed once with pre-warmed PBS. After removing the PBS, 3 ml pre-warmed Accutase® was added to a F75 flask, dispersed evenly and the flask was allowed to sit in incubator for ˜4-5 minutes.
When a single cell suspension was obtained, 7 ml of prewarmed growth media was added and resuspended with the cells. The cell suspension was transferred to a sterile 15 ml conical centrifuge tube, and spun for 5 min at 300×g, RT. The supernatant was discarded and the pellet was resuspended in 10 ml of pre-warmed growth media.
The total cell count was determined, and 20 μl of the desired cell number was added to each well of a 384 well plate using a Multidrop Combi. The plates were then incubated for 24 hours at 37° C., 95% rH, and 5% CO2.
Compound treatment: 24 hours after seeding, the cells were treated with compounds.
A 1:333 dilution of compounds, diluted in DMSO, was made to get a final concentration of 0.3% DMSO per well. To transfer the compounds to the assay plate, 120 nl was shot from Labcyte low dead volume plates to the cell plates containing 20 μl media/well with the ECHO 555 liquid handling system.
After treatment, the cells were fed with 20 μl fresh pre-warmed assay media using a Multidrop combi.
The assay plates were then incubated for another 24 h at 37° C., 95% rH, and 5% CO2.
Luciferase readout: 24 h after treatment, the plates were taken out of the incubator and were allowed to equilibrate to RT. 30 μl of NanoGlo® reagent was added to the plates in the dark. Plates were shaken for 20 min on a Teleshake (˜1500 rpm) in the dark. The luminescence was then measured using an EnVision microplate reader. The IC50 values were generated using Genedata Screener®.

| IC50 [µM] | SMILES |
| --- | --- |
| 0.1 to 10 | Cn1cc2c3cc(C(=O)NC(CO)c4ccccn4)ccc3n(-c3ccc(C(F)(F)F)cc3)c2n1 (racemic) [Example 29, N-[2-hydroxy-1-(pyridin-2-yl)ethyl]-2-methyl-8-[4-(trifluoromethyl)phenyl]-2H,8H-pyrazolo[3,4-b]indole-5-carboxamide] |
| 0.1 to 10 | Cn1cc2c3cc(C(=O)N[C@@H]4C[C@H](O)c5ccccc54)ccc3n(-c3ccc(C(F)(F)F)cc3)c2n1 (relative stereo) [Example B1, N-[(1R,3S)-3-hydroxy-2,3-dihydro-1H-inden-1-yl]-2-methyl-8-[4-(trifluoromethyl)phenyl]-2H,8H-pyrazolo[3,4-b]indole-5-carboxamide] |
| 0.1 to 10 | Cn1cc2c3cc(C(=O)N[C@@H]4COC5(CCC5)[C@H]4O)ccc3n(-c3ccc(C(F)(F)F)cc3)c2n1 (relative stereo) [Example B23, N-[(7R,8S)-8-hydroxy-5-oxaspiro[3.4]octan-7-yl]-2-methyl-8-[4-(trifluoromethyl)phenyl]-2H,8H-pyrazolo[3,4-b]indole-5-carboxamide] |
| 0.1 to 10 | Cn1cc2c3cc(C(=O)N[C@@H]4C[C@H](O)[C@H]4n4cccn4)ccc3n(-c3ccc(C(F)(F)F)cc3)c2n1 (relative stereo) [Example B26, N-[(1R,2S,3S)-3-hydroxy-2-(1H-pyrazol-1-yl)cyclobutyl]-2-methyl-8-[4-(trifluoromethyl)phenyl]-2H,8H-pyrazolo[3,4-b]indole-5-carboxamide] |
| 0.1 to 10 | Cn1cc2c3cc(C(=O)N[C@@H]4[C@H](O)[C@@H]5CCC[C@@H]54)ccc3n(-c3ccc(C(F)(F)F)cc3)c2n1 (relative stereo) [Example B43, N-[(1R,5S,6S,7R)-7-hydroxy-bicyclo[3.2.0]heptan-6-yl]-2-methyl-8-[4-(trifluoromethyl)phenyl]-2H,8H-pyrazolo[3,4-b]indole-5-carboxamide] |
| 0.1 to 10 | Cn1cc2c3cc(C(=O)N[C@H]4c5ccccc5C[C@@H]4O)ccc3n(-c3ccc(C(F)(F)F)cc3)c2n1 (single isomer, unassigned) [Example B2] |
| > 10 | CO[C@H]1C[C@@H](CCO)N(C(=O)c2ccc3c(c2)c2cn(C)nc2n3-c2ccc(C(F)(F)F)cc2)C1 (single isomer, unassigned) [Example B4] |
| 0.1 to 10 | Cn1cc2c3cc(C(=O)N4CCC[C@@H]4CCCO)ccc3n(-c3ccc(C(F)(F)F)cc3)c2n1 (single isomer, unassigned) [Example B18] |
| 0.1 to 10 | Cn1cc2c3cc(C(=O)N4[C@H](CO)C[C@@H]5CCCC[C@@H]54)ccc3n(-c3ccc(C(F)(F)F)cc3)c2n1 (single isomer, unassigned) [Example B32] |
| 0.001 to 0.01 | Cn1cc2c3cc(C(=O)NCCc4cn[nH]c4)ccc3n(-c3ccc(C(F)(F)F)cc3)c2n1 [B100^] |
| > 10 | Cc1cc(CC(C)NC(=O)c2ccc3c(c2)c2cn(C)nc2n3-c2ccc(C(F)(F)F)cc2)n[nH]1 (centres unmarked) [B101^] |
| 0.01 to 0.1 | Cn1cc2c3cc(C(=O)NCc4c(C5CC5)cnn4C)ccc3n(-c3ccc(C(F)(F)F)cc3)c2n1 [B102^] |
| 0.1 to 10 | Cn1cc2c3cc(C(=O)NCC4(n5cncn5)CC4)ccc3n(-c3ccc(C(F)(F)F)cc3)c2n1 [B103^] |
| > 10 | Cn1cc2c3cc(C(=O)NC4CN(c5ccncn5)C4)ccc3n(-c3ccc(C(F)(F)F)cc3)c2n1 [B104^] |
| 0.1 to 10 | CCn1cc(CCNC(=O)c2ccc3c(c2)c2cn(C)nc2n3-c2ccc(C(F)(F)F)cc2)nn1 [B105^] |
| > 10 | Cc1ccnn1CC(C)CNC(=O)c1ccc2c(c1)c1cn(C)nc1n2-c1ccc(C(F)(F)F)cc1 (centres unmarked) [B106^] |
| 0.1 to 10 | Cn1cc2c3cc(C(=O)NCCn4ccc(C5CC5)n4)ccc3n(-c3ccc(C(F)(F)F)cc3)c2n1 [B107^] |
| > 10 | Cn1cc2c3cc(C(=O)N4CCC45CCCOCC5)ccc3n(-c3ccc(C(F)(F)F)cc3)c2n1 (centres unmarked) [B108^] |
| > 10 | CC(NC(=O)c1ccc2c(c1)c1cn(C)nc1n2-c1ccc(C(F)(F)F)cc1)c1cnn(C2CC2)c1 (centres unmarked) [B109^] |
| > 10 | Cn1cc2c3cc(C(=O)NCCc4nncn4C4CC4)ccc3n(-c3ccc(C(F)(F)F)cc3)c2n1 [B110^] |
| > 10 | COCCC1CN(C(=O)c2ccc3c(c2)c2cn(C)nc2n3-c2ccc(C(F)(F)F)cc2)CCO1 (centres unmarked) [B111^] |
| 0.1 to 10 | Cn1cc2c3cc(C(=O)NC4(CCF)CCOCC4)ccc3n(-c3ccc(C(F)(F)F)cc3)c2n1 [B112^] |

| IC50 [µM] | SMILES |
| --- | --- |
| 0.1 to 10 | Cn1cc2c3cc(C(=O)NCCc4cc(O)no4)ccc3n(-c3ccc(C(F)(F)F)cc3)c2n1 [B113^] |
| > 10 | Cn1cc2c3cc(C(=O)N[C@@H]4C[C@@H]5OCCC[C@@H]54)ccc3n(-c3ccc(C(F)(F)F)cc3)c2n1 [B114^] |
| 0.1 to 10 | Cn1cc2c3cc(C(=O)NC(C4CC4)C4COCCO4)ccc3n(-c3ccc(C(F)(F)F)cc3)c2n1 (centres unmarked) [B115^] |
| > 10 | Cn1cc2c3cc(C(=O)NC[C@@H]4C[C@H]4C4CCOCC4)ccc3n(-c3ccc(C(F)(F)F)cc3)c2n1 [B116^] |
| 0.01 to 0.1 | Cn1cc2c3cc(C(=O)NC4(c5ncon5)CCC4)ccc3n(-c3ccc(C(F)(F)F)cc3)c2n1 [B117^] |
| 0.1 to 10 | Cc1ncncc1[C@@H](C)NC(=O)c1ccc2c(c1)c1cn(C)nc1n2-c1ccc(C(F)(F)F)cc1 [B118^] |
| > 10 | CCn1ncc(CNC(=O)c2ccc3c(c2)c2cn(C)nc2n3-c2ccc(C(F)(F)F)cc2)c1F [B119^] |
| 0.1 to 10 | CN(C)c1noc(CCNC(=O)c2ccc3c(c2)c2cn(C)nc2n3-c2ccc(C(F)(F)F)cc2)n1 [B120^] |
| 0.1 to 10 | Cc1nc(CCCNC(=O)c2ccc3c(c2)c2cn(C)nc2n3-c2ccc(C(F)(F)F)cc2)n[nH]1 [B121^] |
| 0.01 to 0.1 | Cn1cc2c3cc(C(=O)N[C@@H]4CCO[C@H]4c4cc[nH]n4)ccc3n(-c3ccc(C(F)(F)F)cc3)c2n1 [B122^] |
| 0.01 to 0.1 | CCCc1nc(C)c(CNC(=O)c2ccc3c(c2)c2cn(C)nc2n3-c2ccc(C(F)(F)F)cc2)o1 [B124^] |
| 0.1 to 10 | Cn1cc2c3cc(C(=O)NCCc4noc(C5CC5)n4)ccc3n(-c3ccc(C(F)(F)F)cc3)c2n1 [B125^] |
| 0.1 to 10 | Cn1cc2c3cc(C(=O)NC4(c5ccncc5F)CC4)ccc3n(-c3ccc(C(F)(F)F)cc3)c2n1 [B127^] |
| 0.1 to 10 | Cn1cc2c3cc(C(=O)NC[C@@H]4C[C@H]4c4ccco4)ccc3n(-c3ccc(C(F)(F)F)cc3)c2n1 [B128^] |
| 0.1 to 10 | CCn1cnnc1CNC(=O)c1ccc2c(c1)c1cn(C)nc1n2-c1ccc(C(F)(F)F)cc1 [B129^] |
| 0.1 to 10 | Cn1cc2c3cc(C(=O)N4CC(CO)(n5cccn5)C4)ccc3n(-c3ccc(C(F)(F)F)cc3)c2n1 [B130^] |
| 0.1 to 10 | CO[C@@H]1CCOC[C@H]1NC(=O)c1ccc2c(c1)c1cn(C)nc1n2-c1ccc(C(F)(F)F)cc1 [B131^] |
| 0.1 to 10 | Cc1[nH]ncc1CCCNC(=O)c1ccc2c(c1)c1cn(C)nc1n2-c1ccc(C(F)(F)F)cc1 [B132^] |
| 0.01 to 0.1 | Cn1cc2c3cc(C(=O)NC4COCC4C4CC4)ccc3n(-c3ccc(C(F)(F)F)cc3)c2n1 (centres unmarked) [B133^] |
| 0.1 to 10 | Cn1cc2c3cc(C(=O)NC4(c5nnc[nH]5)CC4)ccc3n(-c3ccc(C(F)(F)F)cc3)c2n1 [B134^] |
| 0.1 to 10 | Cn1cc2c3cc(C(=O)N4CC(O)(c5ccsc5)C4)ccc3n(-c3ccc(C(F)(F)F)cc3)c2n1 [B135^] |
| > 10 | COc1cc(CN(C)C(=O)c2ccc3c(c2)c2cn(C)nc2n3-c2ccc(C(F)(F)F)cc2)sn1 [B136^] |
